# Test results as given in patent US20260049072A1, “HETEROCYCLIC COMPOUND FOR INDUCING DEGRADATION OF MUTANT KRAS PROTEIN” (Astellas Pharma Inc., priority 2022, published 2026).
# Tests used:
# RAS G12D = target: T1, RAS G12D (Homo sapiens, UniProt P01116, G12D); experiment: RAS G12D degradation activity, Cell ELISA, AsPC-1; format: cell-based; conditions: AsPC-1 cells, 24 hours; read-out: DC50 (RAS G12D 50% degradation value)
# T1 construct: host or cells: AsPC-1 human pancreatic cancer cells
# RAS G12V = target: T2, RAS G12V (Homo sapiens, UniProt P01116, G12V); experiment: RAS G12V degradation activity, Cell ELISA, PA-TU-8902; format: cell-based; conditions: PA-TU-8902 cells, 24 hours, 100% = Example compound 17 at 1 μM; read-out: DC50 (RAS G12V 50% degradation value)
# T2 construct: host or cells: PA-TU-8902 human pancreatic cancer cells
# Summary of the method: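 PA-TU-8902 cells (KRAS G12V) treated 24 h at 37 °C with 10 concentrations, 3 μM to 0.1 nM final; fixed, permeabilised, stained with G12V-specific and β-actin antibodies, infrared fluorescence read. Degradation scaled from DMSO (0%) to 1 μM reference degrader (100%), actin-normalised; DC50 by Sigmoid-Emax regression.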
# T1 sequence (P01116 1-188 isoform P01116-2 G12D): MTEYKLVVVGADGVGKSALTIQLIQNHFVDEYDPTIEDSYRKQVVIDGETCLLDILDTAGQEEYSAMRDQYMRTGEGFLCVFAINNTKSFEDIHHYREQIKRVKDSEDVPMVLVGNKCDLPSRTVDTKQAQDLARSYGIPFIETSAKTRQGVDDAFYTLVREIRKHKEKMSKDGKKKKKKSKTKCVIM
# T2 sequence (P01116 1-188 isoform P01116-2 G12V): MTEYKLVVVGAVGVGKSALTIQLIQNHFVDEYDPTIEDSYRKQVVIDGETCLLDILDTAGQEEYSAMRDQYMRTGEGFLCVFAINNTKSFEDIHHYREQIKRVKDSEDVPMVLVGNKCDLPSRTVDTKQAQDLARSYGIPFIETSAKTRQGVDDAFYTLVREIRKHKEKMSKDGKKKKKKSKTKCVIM
compound,measurement,setting,value
"CO[C@@H](C)COc1nc(OC2CN(C(=O)NCCN(C)C)C2)c2cc(C3CC3)c(-c3c(C)c(F)cc4[nH]ncc34)c(OCc3ccc(C(=O)N[C@H](C(=O)N4C[C@H](O)C[C@H]4C(=O)N[C@@H](CO)c4ccc(-c5scnc5C)cc4)C(C)C)cc3)c2n1 [Example 40, N-{4-[({(7M)-6-cyclopropyl-4-[(1-{[2-(dimethylamino)ethyl]carbamoyl}azetidin-3-yl)oxy]-7-(6-fluoro-5-methyl-1H-indazol-4-yl)-2-[(2S)-2-methoxypropoxy]quinazolin-8-yl}oxy)methyl]benzoyl}-L-valyl-(4R)-4-hydroxy-N-{(1R)-2-hydroxy-1-[4-(4-methyl-1,3-thiazol-5-yl)phenyl]ethyl}-L-prolinamide]",DC50,RAS G12D,47 nM
same,DC50,RAS G12V,76 nM
